In PubChem BioAssay (NCI):
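Cells were grown in 96-well plates and exposed to each compound for 48 hours at five concentrations; endpoints were interpolated linearly between bracketing concentrations, or set to the highest concentration if not reached. GI50 marks 50% less growth. TGI marks complete inhibition of growth.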

Key:
Test in all cases: growth of human tumour cells (NCI), 48 h
[1] = tested on: K-562 leukemia
[2] = tested on: EKVX NSCLC
[3] = tested on: 786-0 renal
[4] = tested on: ACHN renal
[5] = tested on: A549 NSCLC
[6] = tested on: SK-MEL-28 melanoma
[7] = tested on: CAKI-1 renal
[8] = tested on: MDA-N
[9] = tested on: NCI-H226 lung
[10] = tested on: MDA-MB-435
[11] = tested on: HOP-92 NSCLC

`N#C/C(=C\c1cc(Br)c(O)c(Br)c1)c1cccnc1` was tested. Which TGI [1] did it give?
The TGI was > 100 µM.

And the TGI [2]?
Its TGI is 53.3 µM.

And the TGI [3]?
Its TGI is 70.5 µM.

And the TGI [4]?
The TGI was > 100 µM.

What about the TGI [5] of the same molecule?
Its TGI is > 100 µM.

And the TGI [6]?
The TGI was > 100 µM.

What about the TGI [7] of the same molecule?
Its TGI is > 100 µM.

And the TGI [8]?
The TGI was > 100 µM.

What about the TGI [9] of the same molecule?
Its TGI is 91.4 µM.

How did the TGI [1] turn out when `O=C(N=Nc1cc(Cl)ccc1Cl)NNc1cc(Cl)ccc1Cl` was run?
The TGI was 54.6 µM.

What about the TGI [10] of the same molecule?
The TGI was 30 µM.

What about the TGI [6] of the same molecule?
The TGI was 61.2 µM.

What about the TGI [7] of the same molecule?
The TGI was 43.7 µM.

And the TGI [8]?
The TGI was 84.4 µM.

What about the TGI [11] of the same molecule?
The TGI was 32.9 µM.

How did the TGI [1] turn out when `O=C1C=CC(=O)N1Nc1ccc([N+](=O)[O-])cc1[N+](=O)[O-]` was run?
Its TGI is > 66.2 µM.

And the TGI [2]?
Its TGI is > 100 µM.

And the TGI [3]?
Its TGI is > 100 µM.

And the TGI [4]?
The TGI was > 100 µM.

What about the TGI [5] of the same molecule?
Its TGI is > 100 µM.

And the TGI [6]?
The TGI was > 59.2 µM.

What about the TGI [7] of the same molecule?
Its TGI is > 71 µM.

And the TGI [9]?
Its TGI is > 100 µM.

What about the TGI [11] of the same molecule?
The TGI was > 77 µM.

What does the source list for `Cc1cc(=O)c2c([nH]1)NS(=O)(=O)NC2=O`?
TGI [1]: > 100 µM; TGI [2]: > 100 µM; TGI [3]: > 100 µM; TGI [5]: > 100 µM; TGI [6]: > 100 µM; TGI [7]: > 100 µM; TGI [9]: > 100 µM; TGI [11]: > 100 µM

`BrC/C=C/C[P+](c1ccccc1)(c1ccccc1)c1ccccc1` was tested. Which TGI [1] did it give?
The TGI was > 100 µM.

What about the TGI [3] of the same molecule?
The TGI was > 100 µM.

What about the TGI [4] of the same molecule?
The TGI was > 100 µM.

And the TGI [5]?
The TGI was > 100 µM.

What about the TGI [6] of the same molecule?
The TGI was > 100 µM.

And the TGI [11]?
The TGI was 36.1 µM.

Which TGI [1] does the source give for `CC12CC(=O)C3C(C(=O)C1)C32C` (configuration not stated) here?
Its TGI is > 100 µM.

What about the TGI [2] of the same molecule?
The TGI was > 100 µM.

What about the TGI [3] of the same molecule?
The TGI was > 100 µM.

And the TGI [4]?
The TGI was > 100 µM.

What about the TGI [5] of the same molecule?
Its TGI is > 100 µM.

What about the TGI [10] of the same molecule?
The TGI was > 100 µM.

And the TGI [6]?
Its TGI is > 100 µM.

What about the TGI [7] of the same molecule?
Its TGI is > 100 µM.

What about the TGI [8] of the same molecule?
The TGI was > 100 µM.

What about the TGI [9] of the same molecule?
The TGI was > 100 µM.

How did the TGI [1] turn out when `O=C(CNc1ccccc1Cl)Nn1c(-c2ccccc2)nc2ccccc2c1=O` was run?
Its TGI is 97.2 µM.

And the TGI [2]?
The TGI was 36.8 µM.

And the TGI [3]?
Its TGI is 40.2 µM.

And the TGI [4]?
The TGI was > 100 µM.

What about the TGI [5] of the same molecule?
Its TGI is > 100 µM.

And the TGI [10]?
The TGI was 37.4 µM.

And the TGI [6]?
The TGI was 55.9 µM.

And the TGI [9]?
Its TGI is 81.1 µM.

What about the TGI [11] of the same molecule?
The TGI was 29.4 µM.

How did the TGI [1] turn out when `Cc1cn(C2OC(C)(CO)C(O)C2O)c(=O)[nH]c1=O` (configuration not stated) was run?
Its TGI is > 100 µM.

What about the TGI [3] of the same molecule?
The TGI was > 100 µM.

And the TGI [4]?
The TGI was > 100 µM.

What about the TGI [5] of the same molecule?
Its TGI is > 100 µM.

What about the TGI [6] of the same molecule?
The TGI was > 100 µM.

And the TGI [7]?
Its TGI is > 100 µM.

What about the TGI [11] of the same molecule?
The TGI was > 100 µM.

How did the TGI [1] turn out when `CS(=O)(=O)OCCn1c(=O)n(CCOS(C)(=O)=O)c(=O)n(CCOS(C)(=O)=O)c1=O` was run?
The TGI was > 100 µM.

What about the TGI [2] of the same molecule?
The TGI was > 100 µM.

And the TGI [3]?
Its TGI is > 100 µM.

What about the TGI [4] of the same molecule?
Its TGI is > 100 µM.

And the TGI [5]?
Its TGI is > 100 µM.

What about the TGI [10] of the same molecule?
The TGI was > 100 µM.

And the TGI [6]?
Its TGI is > 100 µM.

What about the TGI [7] of the same molecule?
The TGI was > 100 µM.

What about the TGI [8] of the same molecule?
The TGI was > 100 µM.

What about the TGI [9] of the same molecule?
Its TGI is > 100 µM.

`COc1cc2c(cc1-c1c(C)noc1C)cc(C)c(=O)n2Cc1ccccn1` was tested. Which GI50 [1] did it give?
Its GI50 is 0.963 µM.

What about the TGI [1] of the same molecule?
The TGI was > 100 µM.

And the GI50 [2]?
Its GI50 is 1.67 µM.

What about the TGI [2] of the same molecule?
Its TGI is > 100 µM.

And the GI50 [4]?
The GI50 was 1.45 µM.

And the TGI [4]?
Its TGI is > 100 µM.

What about the GI50 [5] of the same molecule?
The GI50 was 1.76 µM.

What about the TGI [5] of the same molecule?
Its TGI is > 100 µM.

What about the GI50 [10] of the same molecule?
The GI50 was 1.25 µM.

What about the TGI [10] of the same molecule?
The TGI was 4.33 µM.

What about the GI50 [6] of the same molecule?
The GI50 was 3.33 µM.

And the TGI [6]?
The TGI was > 100 µM.

And the GI50 [7]?
The GI50 was 0.284 µM.

What about the TGI [7] of the same molecule?
The TGI was 23.2 µM.

And the GI50 [9]?
The GI50 was 1.59 µM.

What about the TGI [9] of the same molecule?
The TGI was > 100 µM.

And the GI50 [11]?
The GI50 was 0.473 µM.

And the TGI [11]?
The TGI was 25.3 µM.

For `CC(=O)N(C(C)=O)C1=C2c3ccccc3N(S(=O)(=O)c3ccccc3)C2n2c(=O)n(-c3ccccc3)c(=O)n2C1` (configuration not stated), which TGI [1] is on record?
The TGI was > 100 µM.

What about the TGI [2] of the same molecule?
Its TGI is 61.9 µM.

What about the TGI [3] of the same molecule?
Its TGI is > 100 µM.

And the TGI [4]?
The TGI was > 100 µM.

And the TGI [5]?
The TGI was > 100 µM.

What about the TGI [6] of the same molecule?
Its TGI is 58.2 µM.

What about the TGI [7] of the same molecule?
The TGI was > 100 µM.

What about the TGI [11] of the same molecule?
The TGI was 73.9 µM.

Which TGI [1] does the source give for `CSc1cc(Cl)c(C)cc1S(=O)(=O)NC(=O)NNc1ccc(Cl)cc1` here?
The TGI was > 100 µM.

What about the TGI [2] of the same molecule?
The TGI was > 100 µM.

And the TGI [3]?
The TGI was > 100 µM.

What about the TGI [4] of the same molecule?
The TGI was > 100 µM.

And the TGI [5]?
Its TGI is > 100 µM.

And the TGI [10]?
Its TGI is > 100 µM.

What about the TGI [6] of the same molecule?
Its TGI is > 100 µM.

What about the TGI [7] of the same molecule?
Its TGI is > 100 µM.

And the TGI [8]?
Its TGI is > 100 µM.

And the TGI [9]?
The TGI was > 100 µM.

With `CC(C(=O)n1nnc2ccccc21)N(c1ccccc1)c1ccccc1` (configuration not stated) as the molecule, how does the TGI [1] read?
Its TGI is > 100 µM.

What about the TGI [2] of the same molecule?
The TGI was > 100 µM.

And the TGI [3]?
Its TGI is > 100 µM.

And the TGI [4]?
The TGI was > 100 µM.

What about the TGI [5] of the same molecule?
Its TGI is > 100 µM.

And the TGI [6]?
The TGI was > 100 µM.

And the TGI [7]?
The TGI was > 100 µM.

And the TGI [9]?
Its TGI is > 100 µM.

What does the source list for `CN(C)c1ccc(C=C2N=C(c3ccccc3)N(c3cc(C(=O)c4ccccc4)ccc3N3C(=O)/C(=C/c4ccc(N(C)C)cc4)N=C3c3ccccc3)C2=O)cc1`?
TGI [1]: > 100 µM; TGI [2]: > 100 µM; TGI [3]: > 100 µM; TGI [4]: > 100 µM; TGI [5]: > 100 µM; TGI [10]: 4.42 µM; TGI [6]: > 100 µM; TGI [7]: > 100 µM; TGI [8]: 6.03 µM; TGI [11]: > 100 µM

Which TGI [1] does the source give for `CC(=O)OCC1OC(n2cc([N+](=O)[O-])c(=O)[nH]c2=O)C(OC(C)=O)C(OC(C)=O)C1OC(C)=O` (configuration not stated) here?
Its TGI is > 100 µM.

What about the TGI [2] of the same molecule?
Its TGI is > 100 µM.

And the TGI [3]?
Its TGI is > 100 µM.

And the TGI [4]?
Its TGI is > 100 µM.

And the TGI [5]?
Its TGI is > 100 µM.

What about the TGI [6] of the same molecule?
Its TGI is > 100 µM.

What about the TGI [7] of the same molecule?
Its TGI is > 100 µM.

And the TGI [9]?
The TGI was > 100 µM.

What about the TGI [11] of the same molecule?
The TGI was > 100 µM.

With `N#CC(C#N)=CNC(=S)c1ccncc1` as the molecule, how does the TGI [1] read?
The TGI was > 100 µM.

And the TGI [2]?
Its TGI is > 100 µM.

What about the TGI [3] of the same molecule?
Its TGI is > 100 µM.

And the TGI [4]?
The TGI was > 100 µM.

What about the TGI [5] of the same molecule?
Its TGI is > 100 µM.

What about the TGI [10] of the same molecule?
Its TGI is > 100 µM.

And the TGI [6]?
The TGI was > 100 µM.

What about the TGI [7] of the same molecule?
Its TGI is > 100 µM.

And the TGI [8]?
Its TGI is > 100 µM.

What about the TGI [9] of the same molecule?
Its TGI is > 100 µM.
